Columns and labels:
5-HT3 receptor [1] = target: T1, 5-HT3 receptor (Cavia porcellus, UniProt O70212); experiment: contractile effects on the isolated colon from a guinea pig (5-HT3 receptor agonistic activity); design: species or system guinea pig (male Hartley); conditions: for Emax: guinea pig, read-out: Max. response; for Relative potency: relative EC50 value, based on that of 5-HT as standard value (1)
T1 construct: Distal colons were excised from male Hartley guinea pigs; from tissue; host or cells: distal colon strips of male Hartley guinea pigs
T1 sequence (O70212 24-490 limits assumed): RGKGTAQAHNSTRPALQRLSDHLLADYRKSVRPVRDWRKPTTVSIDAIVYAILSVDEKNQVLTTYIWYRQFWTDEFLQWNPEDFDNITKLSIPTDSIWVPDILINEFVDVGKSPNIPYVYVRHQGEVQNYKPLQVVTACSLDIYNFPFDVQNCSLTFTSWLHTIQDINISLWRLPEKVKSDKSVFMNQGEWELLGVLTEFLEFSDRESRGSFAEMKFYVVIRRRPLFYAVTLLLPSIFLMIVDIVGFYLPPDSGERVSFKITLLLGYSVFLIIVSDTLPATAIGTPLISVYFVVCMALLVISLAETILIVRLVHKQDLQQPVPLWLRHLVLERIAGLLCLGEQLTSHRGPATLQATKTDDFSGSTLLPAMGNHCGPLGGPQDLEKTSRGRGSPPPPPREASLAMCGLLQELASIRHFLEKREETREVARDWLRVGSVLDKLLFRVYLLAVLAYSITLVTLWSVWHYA
Text: Distal colons were excised from male Hartley guinea pigs (500 to 800 g) to prepare strips of about 20 mm.
Each strip was longitudinally suspended in an organ bath, and contractile response was isometrically measured.

5-HT3 receptor [2] = experiment: Facilitation of defecation in rat; assay type: in vivo, rat (male Wistar); conditions: 10 mg/kg s.c.; number of feces excreted for four hours after administration
Protocol: In the male Wistar rat (200-300 g), facilitating effects on defecation by stimulation of 5-HT3 receptor [Miyata et al., J. Pharmacol. Exp. Ther., 261, 297 (1992)] were studied. The compound (10 mg/kg) was subcutaneously administered to the rat and the number of feces excreted for four hours after the administration was counted.

Emax (5-HT3 receptor [1])	Relative potency (5-HT3 receptor [1])	Structure (SMILES)	facilitating effect on defecation (5-HT3 receptor [2])
57%		c1ccc2c(c1)Cc1sc([C@@H]3C[C@@H]4CCCN4C3)nc1-2 (relative stereo) [Ex. 66, (3R*,5S*)-3-(8H-indeno[1,2-d]thiazol-2-yl)-1-azabicyclo[3.3.0]octane hemifumarate]	
75%	1/2	NCCc1nc2c(s1)Cc1ccccc1-2.O=C(O)/C=C/C(=O)O [Ex. 9, 2-(2-aminoethyl)-8H-indeno[1,2-d]thiazole fumarate]	
51%		c1ccc2c(c1)Cc1sc(CCN3CCCCC3)nc1-2 [Ex. 71, 2-(2-piperidinoethyl)-8H-indeno[1,2-d]thiazole]	
45%	1/3	c1csc(-c2csc(CC3CCCCN3)n2)c1 (centres unmarked) [Ex. 59, 2-[[4-(2-Thienyl)-2-thiazolyl]methyl]piperidine hemifumarate]	
23%		NC1(CCc2nc3c(s2)Cc2ccccc2-3)CCCCC1 [Ex. 70, 2-[2-(1-aminocyclohexyl)ethyl]-8H-indeno[1,2-d]thiazole]	
77%		c1ccc2c(c1)Cc1sc(C3CCNC3)nc1-2 (centres unmarked) [Ex. 52, 2-(3-pyrrolidinyl)-8H-indeno[1,2-d]thiazole]	exhibited facilitating effect on defecation
52%	1/2	O=C(O)/C=C/C(=O)O.c1ccc(-c2csc(C3CCCNC3)n2)cc1 (centres unmarked) [Ex. 46, 4-Phenyl-2-(3-piperidyl)thiazole fumarate]	

From patent publication US5834499A, “5-HT3 receptor agonist, novel thiazole derivative and intermediate thereof” (Yamanouchi Pharmaceutical Co., Ltd., priority 1994, dated 1998)
